According to patent US20230000842A1, “METHODS OF TREATING CARTILAGE DISORDERS THROUGH INHIBITION OF CLK AND DYRK” (SAMUMED, LLC, priority 2019, published 2023):

How the values were obtained:
CLK3 kinase = CLK3 kinase (Homo sapiens, UniProt P49761); experiment: CLK3 kinase activity assay (Z-lyte FRET); format: biochemical; conditions: Z-lyte Ser/Thr 18 peptide, 156 μM ATP, 1 h at room temperature;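 further: kinase activity read as coumarin/fluorescein emission ratio by FRET, unphosphorylated peptide as 0% and phosphorylated peptide as 100% control, values from non-linear regression of dose-response curves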
[1] = system: MMP-3 levels in supernatant of chondrocytes stimulated with IL1-β; experiment: Chondrocyte protection assay compound screening (MMP-3 LANCE Ultra); format: cell-based, human; conditions: Homo sapiens, Chondrocyte, IL1-β 10 ng/mL overnight, 11-point curves from 3 μM to 0.05 nM; for Emax: read-out: Maximum % Inhibition
Method in brief: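 Primary human chondrocytes (passage 2–5) in differentiation medium were stimulated with 10 ng/mL IL1-β for an overnight incubation at 37 °C. MMP-3 in 1:7-diluted supernatant was read by TR-FRET immunoassay against a standard curve, normalised to IL1-β-stimulated wells; EC50 and maximum % inhibition came from nonlinear regression.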

CLK2 kinase = CLK2 kinase (Homo sapiens, UniProt P49760); experiment: CLK2 kinase activity assay (Z-lyte FRET); format: biochemical; conditions: Z-lyte Ser/Thr 6 peptide, 60 μM ATP, 1 h at room temperature;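 further: FRET read-out as coumarin to fluorescein emission ratio, unphosphorylated peptide as 0% and phosphorylated peptide as 100% controls, duplicate reactions, non-linear regression fit of dose-response curves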
[2] = system: Wnt pathway activity (SW480 colon carcinoma cells stably expressing the Sp5-Luc reporter); experiment: Wnt pathway activity screening assay (Sp5-Luc reporter gene assay); conditions: Homo sapiens, SW480, Table 4; SW480 cells stably expressing Sp5-Luc reporter, 10-point dose-response from 10 μM, 36 to 48 hours

CLK2 kinase, sequence (P49760 whole entry): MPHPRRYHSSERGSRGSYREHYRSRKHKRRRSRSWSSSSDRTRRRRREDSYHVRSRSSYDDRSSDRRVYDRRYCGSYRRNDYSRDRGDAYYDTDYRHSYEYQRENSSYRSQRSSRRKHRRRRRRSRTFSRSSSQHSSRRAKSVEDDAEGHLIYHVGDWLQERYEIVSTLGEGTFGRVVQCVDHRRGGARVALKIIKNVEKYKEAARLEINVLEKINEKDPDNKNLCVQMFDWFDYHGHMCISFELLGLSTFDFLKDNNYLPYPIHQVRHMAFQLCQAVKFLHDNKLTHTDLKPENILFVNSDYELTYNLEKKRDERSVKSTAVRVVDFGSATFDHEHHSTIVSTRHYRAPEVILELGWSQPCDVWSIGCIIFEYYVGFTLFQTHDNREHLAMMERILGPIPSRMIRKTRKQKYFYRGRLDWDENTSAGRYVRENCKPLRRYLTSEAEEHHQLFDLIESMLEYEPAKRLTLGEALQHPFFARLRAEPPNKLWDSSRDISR
CLK3 kinase, sequence (P49761 whole entry): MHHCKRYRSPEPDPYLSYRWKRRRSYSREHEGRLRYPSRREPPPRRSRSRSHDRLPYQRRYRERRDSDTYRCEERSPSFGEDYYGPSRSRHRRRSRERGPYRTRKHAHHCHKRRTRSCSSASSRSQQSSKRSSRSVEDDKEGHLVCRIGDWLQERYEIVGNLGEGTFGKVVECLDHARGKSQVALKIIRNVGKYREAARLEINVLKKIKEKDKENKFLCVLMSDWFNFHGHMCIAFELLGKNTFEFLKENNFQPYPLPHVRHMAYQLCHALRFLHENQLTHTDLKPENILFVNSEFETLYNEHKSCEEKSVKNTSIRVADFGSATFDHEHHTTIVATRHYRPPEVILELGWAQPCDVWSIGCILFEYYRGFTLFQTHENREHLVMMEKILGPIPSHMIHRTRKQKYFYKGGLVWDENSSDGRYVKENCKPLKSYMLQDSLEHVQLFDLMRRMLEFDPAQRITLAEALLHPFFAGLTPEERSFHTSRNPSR

Row | SMILES | EC50 (CLK3 kinase) | EC50 [1] | Emax [1] | EC50 (CLK2 kinase) | EC50 [2]
1 | O=C(Nc1cccnc1)c1n[nH]c2cnc(-c3cncc(CN4CCCCC4)c3)cc12 [compound 118] | 601 nM | 138 nM | 21.1% | 8 nM | 848 nM
2 | CC(C)CC(=O)Nc1cncc(-c2cnc3[nH]nc(-c4nc5c(-c6cccc(F)c6)cncc5[nH]4)c3c2)c1 [compound 125] | 57 nM | ≥ 3000 nM |  | 1 nM | 0.6 nM
3 | CCN(C)Cc1cncc(-c2cnc3[nH]nc(-c4nc5c(-c6cccc(F)c6)cncc5[nH]4)c3c2)c1 [compound 140] | 22 nM | 0.8 nM | 76.4% | 2 nM | 643 nM
4 | Fc1cccc(-c2cncc3[nH]c(-c4n[nH]c5cnc(-c6cncc(OC7CCNCC7)c6)cc45)nc23)c1 [compound 152] | 33 nM | 1710 nM | 31.8% | 1 nM | > 10000 nM
5 | CC(C)(C)C(=O)Nc1cncc(-c2ccc3[nH]nc(-c4nc5c(-c6cccnc6)cncc5[nH]4)c3c2)c1 [compound 188] | 23 nM | 1100 nM | 100% | 3 nM | 85.4 nM
6 | O=C(Nc1cncc(-c2ccc3[nH]nc(-c4nc5c(-c6cccnc6)cncc5[nH]4)c3c2)c1)c1ccccc1 [compound 192] | 17 nM | 1.9 nM | 95.5% | 5 nM | > 10000 nM
7 | CCNCc1cncc(-c2ccc3[nH]nc(-c4nc5c(-c6ccccn6)nccc5[nH]4)c3c2)c1 [compound 199] | 136 nM | 2.4 nM | 80.9% | 2 nM | 2130 nM
8 | NC1CN(c2cncc(-c3ccc4[nH]nc(-c5nc6ccncc6[nH]5)c4c3)c2)C1 [compound 205] | 182 nM | 20.8 nM | 61.5% | 1 nM | 344 nM
9 | Cc1cn(-c2cncc3[nH]c(-c4n[nH]c5ccc(-c6cncc(NC(=O)CC(C)C)c6)cc45)nc23)cn1 [compound 225] | 16 nM | 845 nM | 89.2% | 2 nM | 4570 nM
10 | FC1(F)CCN(Cc2cncc(-c3cnc4[nH]nc(-c5nc6c(-c7ccoc7)nccc6[nH]5)c4c3)c2)C1 [compound 241] | 34 nM | 0.1 nM | 87.1% | 4 nM | 162 nM
11 | O=C(CC1CCNCC1)Nc1cncc(-c2ccc3[nH]nc(-c4nc5c(-c6ccsc6)nccc5[nH]4)c3n2)c1 [compound 248] | 66 nM | ≥ 3000 nM | 40.7% | 1 nM | > 10000 nM
12 | Fc1ccc(-c2cncc3[nH]c(-c4n[nH]c5cnc(-c6cncc(CN7CCCC7)c6)cc45)nc23)s1 [compound 264] | 35 nM | ≥ 3000 nM | 81% | 2 nM | 470 nM
13 | Cc1ncc(-c2ccc3[nH]nc(-c4nc5c(-c6cc(F)cc(NCCN(C)C)c6)ccnc5[nH]4)c3n2)n1C [compound 287] | 44 nM | 12.8 nM | 74.2% | 4 nM | 620 nM
14 | Cc1ccncc1-c1cc2c(-c3nc4c(-c5cc(F)cc(CNS(C)(=O)=O)c5)cncc4[nH]3)n[nH]c2cn1 [compound 290] | 17 nM | 604 nM |  | 2 nM | 96.6 nM
15 | CN1CCC(Oc2ccc3[nH]c(-c4n[nH]c5ccc(-c6cnn(C)c6)cc45)nc3c2)CC1 [compound 299] | 29 nM | 170 nM | 100% | 1 nM | 18.3 nM
16 | O=C(Nc1cncc(-c2ccc3[nH]nc(-c4cc5cnccc5[nH]4)c3c2)c1)C1CCCCC1 [compound 431] | 18 nM | 6.7 nM | 100% | 1 nM | 285 nM
17 | c1cnc2cc(-c3n[nH]c4ccc(-c5cncc(CN6CCCCC6)c5)cc34)[nH]c2c1 [compound 449] | 19 nM | 319 nM | 100% | 2 nM | 165 nM
18 | CC#CC(=O)Nc1cc2cc(-c3cnn(C)c3)ccc2cn1 [compound 539] | 123 nM | 32.8 nM | 42.3% | 7 nM | 513 nM
19 | CN1CCC(Nc2cc(C(=O)Nc3cc4cc(-c5cnn(C)c5)ccc4cn3)ccn2)CC1 [compound 555] | 21 nM | ≥ 3000 nM | 85.1% | 1 nM | 65.6 nM
20 | CC(C)OC(=O)N1CCC(n2cc(C(=O)Nc3cc4cc(-c5cnn(C)c5)ccc4cn3)cn2)CC1 [compound 562] | 20 nM | 88.1 nM | 34.8% | 1 nM | 54.5 nM

Row | SMILES | EC50 (CLK3 kinase) | EC50 [1] | Emax [1] | EC50 (CLK2 kinase) | EC50 [2]
21 | CC(C)N1CCC(c2nc(C(=O)Nc3cc4cc(-c5cnn(C)c5)ccc4cn3)co2)CC1 [compound 563] | 26 nM | 57.3 nM | 72.4% | 5 nM | 80 nM
22 | CN(C)C1CN(c2ncc(C(=O)Nc3cc4cc(-c5cnn(C)c5)ccc4cn3)s2)C1 [compound 564] | 37 nM | 71.4 nM | 0% | 2 nM | 1320 nM
23 | CO[C@H]1CC[C@H](C(=O)Nc2cc3cc(-c4cnn(C)c4CN4CCCCC4)ccc3cn2)CC1 [compound 569] | 164 nM | ≥ 3000 nM | 0.2% | 8 nM | 471 nM
24 | Cn1ncc(-c2ccc3cnc(NC(=O)[C@H]4CC[C@H](CO)CC4)cc3c2)c1CN1CCCCC1 [compound 570] | 143 nM | ≥ 3000 nM | 80.6% | 9 nM | 594 nM
25 | Cn1ncc(-c2ccc3cnc(NC(=O)C4CCN(C(=O)c5ccccc5)CC4)cc3c2)c1CN1CCCCC1 [compound 571] | 318 nM | 35 nM | 51% | 7 nM | 706 nM
26 | O=C(Nc1cc2cc(-c3cnn4c3CCNC4)ccc2cn1)c1ccc(OC(F)F)cc1 [compound 574] | 200 nM | 1920 nM | 59.5% | 2 nM | 375 nM
27 | CC(C)N1CCC(n2cc(C(=O)Nc3cc4cc(-c5cn(C)nn5)ccc4cn3)cn2)CC1 [compound 579] | 19 nM | 492 nM | 91% | 2 nM | 32.7 nM
28 | Cc1nnc(C(=O)Nc2cc3cc(-c4cncn4C)ccc3cn2)s1 [compound 584] | 177 nM | 71.5 nM | 38.6% | 6 nM | 1890 nM
29 | CC(C)n1cc(C(=O)Nc2cc3cc(-c4cncn4C)ccc3cn2)cn1 [compound 585] | 13 nM | 1430 nM | 77.9% | 1 nM | 34.8 nM
30 | CC(C)n1cc(C(=O)Nc2cc3cc(-c4cncn4C(C)C)ccc3cn2)cn1 [compound 586] | 23 nM | 4.6 nM | 41.7% | 7 nM | 115 nM
31 | Cc1ncc(-c2ccc3cnc(NC(=O)C4(F)CC4)cc3c2)n1C [compound 587] | 678 nM | 18.7 nM |  | 8 nM | 2210 nM
32 | Cc1ncc(C(=O)Nc2cc3cc(-c4cnc(C)n4C)ccc3cn2)s1 [compound 589] | 31 nM | ≥ 3000 nM | 43.5% | 2 nM | 102 nM
33 | CN1CCN(c2cc(C(=O)Nc3cc4cc(-c5ccc(N)nc5)ccc4cn3)ccn2)CC1 [compound 596] | 42 nM | 798 nM | 39.9% | 1 nM | 710 nM
34 | O=C(Nc1cc2cc(-c3cncc(CN4CCC(O)CC4)c3)ccc2cn1)c1ccc(F)cc1 [compound 597] | 94 nM | 2.9 nM | 3.7% | 9 nM | 382 nM
35 | CC(C)Nc1cncc(-c2ccc3cnc(NC(=O)c4cccc(C5CCN(C)CC5)c4)cc3c2)n1 [compound 599] | 11 nM | ≥ 3000 nM | 66.4% | 2 nM | 132 nM
36 | O=C(Nc1cc2cc(-c3cncc(NC4CCNCC4)n3)ccc2cn1)C1CCCCC1 [compound 601] | 59 nM | ≥ 3000 nM | 91.6% | 2 nM | 319 nM
37 | O=C(Nc1cc2cc(-c3cncc(NCC4(F)CNC4)n3)ccc2cn1)C1CC1 [compound 602] | 18 nM | 897 nM | 99.5% | 2 nM | 119 nM
38 | CN1CCC(n2cc(C(=O)Nc3cc4cc(-c5cncc6[nH]ccc56)ccc4cn3)cn2)CC1 [compound 604] | 7 nM | 40.1 nM | 57.4% | 2 nM | 13.3 nM
39 | CN1CCC(n2cc(C(=O)Nc3cc4cc(-c5cnc6cc[nH]c6c5)ccc4cn3)cn2)CC1 [compound 605] | 9 nM | ≥ 3000 nM | 59.9% | 2 nM | 26.8 nM
40 | CN1CCN(c2cc(C(=O)Nc3cc4nc(-c5cnn(C)c5)ccc4cn3)ccn2)CC1 [compound 606] | 60 nM | ≥ 3000 nM | 76.1% | 4 nM | 102 nM
